These are literature values, as cited in patent US20240366596A1, “TREATMENT OF HFPEF IN POST-MENOPAUSAL WOMEN WITH AN SGC STIMULATOR” (Cyclerion Therapeutics, Inc., priority 2021, published 2024).

The test system of series [1] is patients with chronic HF with HFpEF. The following applies: top-line results; cited from earlier work.
The subject of series [2] is subjects with symptomatic HF and an LVEF≥45%. The following applies: women, spironolactone vs placebo, subjects from the Americas; cited from earlier work.

In the case of `OC[C@H]1O[C@@H](c2ccc(Cl)c(Cc3ccc(O[C@H]4CCOC4)cc3)c2)[C@H](O)[C@@H](O)[C@@H]1O` [empagliflozin], the “risk for the composite of cardiovascular death or hospitalization for HF compared with placebo” value in series [1] is on record as “significantly reduced risk”. Turning to `CC(=O)S[C@@H]1CC2=CC(=O)CC[C@]2(C)[C@H]2CC[C@@]3(C)[C@@H](CC[C@@]34CCC(=O)O4)[C@H]12` [spironolactone], in series [2], the “all-cause mortality HR” value is reported as 0.66.
